Source: patent US9023853B2, “Janus kinase 2 (JAK2) inhibitor for the treatment of lupus” (Cephalon, Inc., priority 2010, dated 2015)

What was measured:
Assay type in all cases: in vivo, mouse
plasma cells = assay: Spleen plasma cells by flow cytometry in MRL/lpr mice; conditions: 100 mg/kg, p<0.01
Experimental: Antibodies used for flow cytometry consisted of anti-mouse CD138-APC (eBioscience, San Diego, Calif.), anti-mouse CD19-FITC (eBioscience, San Diego, Calif.), anti-mouse CD38-PE (eBioscience, San Diego, Calif.) and anti-mouse CD45R/B220-Cyc (eBioscience, San Diego, Calif.), Rat IgG1-APC isotype control (eBioscience, San Diego, Calif.), Rat IgG2a-PE isotype control (eBioscience, San Diego, Calif.). All samples were analyzed using an Accuri C6 Flow Cytometer. Complete media was used for all experiments involving the ex vivo culture of splenocytes for all Elispot experiments. Complete media consisted of RPMI1640 (Cellgro, Manassas, Va.), plus 1% Pen-Strep (Cellgro, Manassas, Va.), 1% L-Gln (Cellgro, Manassas, Va.), 1% NEAA (Cellgro, Manassas, Va.), β-ME (Cellgro, Manassas, Va.), plus 10% FBS (Cellgro, Manassas, Va.).
Washed, RBC-lysed splenocytes were stained for plasma cell markers as previously used in published reports (Neubert, Meister et al. 2008). As used herein the term “plasma cell” will refer to the following immunophenotype definition: Plasma cells were defined as live CD19-negative, CD45R/B220-negative, CD138-positive, CD38-positive events for the MRL/lpr model. A total of 200,000-500,000 events were collected per tube/sample. Insufficient sample limited plasma cell determination in bone marrow. […]

[1] = test system: anti-chromatin antibody secreting cells (ASCs); assay: Anti-chromatin antibody secreting B-cell Elispot, MRL/lpr spleen; conditions: MRL/lpr mice; 100 mg/kg; p<0.001
Experimental: B-cell Elispot components were ordered from MabTech (Nacka Strand, Sweden) and nitrocellulose IP filter plates were ordered from Millipore (Billerica, Mass.). […] Spleens were processed using glass homogenization, filtered through a 60 μm sterile cell strainer and red blood cells (RBCs) lysed using BioLegend (San Diego, Calif.) lysis buffer. Processed splenocytes were added to each well in culture medium. To avoid skewing of true ex vivo frequencies of antibody secreting cell types (ASCs), cells were not stimulated with a polyclonal mitogen like LPS, but rather incubated in media alone to allow monitoring of genuine ex vivo antibody release. Anti-mouse pan-IgG was used as a positive control for total IgG producing ASCs and was used to normalize results. Frequencies for each antigen were identified in an initial test phase for each model. […] Different numbers of splenocytes were added for different antigens due to saturation limits of spot frequencies per well. These limits were previously established. B-cell Elispots were incubated overnight at 37° C. To develop each assay, secondary antibody was added to each well, incubated, washed and alkaline phosphatase strepavidin was used as the conjugate; substrate used was BCIP-NBT. Plates were developed until spots were visible. […]

IL-12 = assay: Serum IL-12 (Luminex) in NZM mice
Experimental: (§1) For the processing of serum samples for cytokine analysis, frozen plasma at −80° C. was thawed on ice, vortexed, and centrifuged for 10 minutes to remove debris and aggregates. A total of 25-50 μL of serum was used for Luminex® assays following the manufacturer's instructions. Ten different mouse cytokines were measured using the mouse cytokine 10-plex bead kit (Invitrogen, Carlsbad, Calif., no. LMC0001). Briefly, filter plates (Millipore, Billerica, Mass., no. MAIPSWU10), were pre-wet with 200 μL of wash solution (kit component) and 25 μL of beads were added per well. […]
(§2) Age mated, female, NZM or NZW/LacJ, mice were matured for the study of lupus nephritis for a total of 7 months or 210 days at which time urine was collected for proteinuria detection. Mice with 0.5-1.0 mg/ml of urine protein as determined by an optical density-based total protein precipitation assay and cross-checked for 30-300 mg/dl of protein as determined by a stick assay were considered proteinuria positive and selected for study entry. […] End-stage lupus nephritis was evaluated by histopathology and scored by a board certified pathologist for the assessment of total renal damage in diseased animals using the scoring method described by Smith et al (Smith, Dong et al. 2007). […]

CXCL10/IP-10 = assay: Serum CXCL10/IP-10 in NZM mice
Experimental: as §1, §2

TNFα = assay: Serum TNFα in NZM mice
Experimental: as §1, §2

[2] = test system: c-telopeptide collagen type I cross-linker; CTx; assay: Osteoclast activity: serum bone resorption biomarker CTx in NZM mice
Description: Vehicle included 3% DMSO, 10% Solutol and 87% PBS.

CN1CCN(c2cccc(Nc3nc4c(-c5ccc(S(C)(=O)=O)cc5)cccn4n3)c2)CC1 [COMPOUND A, [8-(4-methanesulfonyl-phenyl)-[1,2,4]triazolo[1,5-a]pyridin-2-yl]-[3-(4-methyl-piperazin-1-yl)-phenyl]-amine]
spleen plasma cells decrease vs vehicle (plasma cells): 65.5% | frequency of anti-chromatin ASCs in the spleen, decrease vs vehicle [1]: 89.1% | serum IL-12 decrease compared to vehicle (IL-12; 55 mg/kg): 99.4% | serum IL-12 decrease compared to vehicle (IL-12; 100 mg/kg): 99.9% | serum CXCL10/IP-10 decrease compared to vehicle (CXCL10/IP-10; 55 mg/kg): 47.3% | serum CXCL10/IP-10 decrease compared to vehicle (CXCL10/IP-10; 100 mg/kg): 80.0% | serum TNFα decrease compared to vehicle (TNFα; 55 mg/kg): 92.3% | serum TNFα decrease compared to vehicle (TNFα; 100 mg/kg): 88.3% | serum CTx decrease vs. vehicle ([2]; 55 mg/kg): 37.8% | serum CTx decrease vs. vehicle ([2]; 100 mg/kg): 46.7%
